# Results taken from patent US9376442B2, “Methylpyrrolopyrimidinecarboxamides” (Takeda GmbH, priority 2009, dated 2016).
# Biological target: T1, PDE5A1 (Homo sapiens, UniProt O76074)
# T1 construct: from tissue; host or cells: human platelets from fresh donor blood (10,000 x g supernatant of sonicated lysate)
# Assay: Inhibition of type 5 phosphodiesterase (PDE5) activity, modified SPA test with human platelet lysate
# Type: biochemical
# Settings: 0.5 μM cGMP, read-out: PDE5A1 inhibitory values [measured as −log IC50 (mol/l)] (converted)
# Procedure: Method for Measuring Inhibition of the Type 5 Phosphodiesterase (PDE5) Activity:
# As a source for human PDE5, platelets are used. For that purpose, 150 ml fresh blood from human donors anticoagulated with citrate [final concentration 0.3% (w/v)] is centrifuged at 200 g for 10 min to obtain the so-called platelet-rich-plasma (PRP) as a supernatant. 1/10 volume of ACD solution (85 mM Na3-citrate, 111 mM D-glucose, 71 mM citric acid, pH 4.4) is added to 9/10 volume of PRP. After centrifugation (1,400 g, 10 min) the cell pellet is resuspended in 3 ml homogenization buffer (NaCl 140 mM, KCl 3.8 mM, EGTA (ethylene glycol tetraacetic acid) 1 mM, MgCl2 1 mM, Tris-HCl 20 mM, beta-mercaptoethanol 1 mM, pH 8.2) plus protease-inhibitor mix giving rise to the final concentrations of 0.5 mM Pefablock (Roche), 10 μM Leupeptin, 5 μM Trypsininhibitor, 2 mM Benzamidin and 10 μM Pepstatin A. The suspension is sonified and thereafter centrifuged for 15 min at 10,000 g. The resulting supernatant (platelet lysate) is used for enzymatic testings.
# PDE5A1 activity is inhibited by the compounds of the present subject matter in a modified SPA (scintillation proximity assay) test, supplied by Amersham Biosciences (see procedural instructions “phosphodiesterase [3H]cAMP SPA enzyme assay, code TRKQ 7090”), carried out in 96-well microtitre plates (MTP's). The test volume is 100 μl and contains 20 mM Tris buffer (pH 7.4), 0.1 mg of BSA (bovine serum albumin)/ml, 5 mM Mg^2+, 1 μM motapizone, 10 nM PDE2 inhibitor 2-(3,4-dimethoxybenzyl)-7-[(1R,2R)-2-hydroxy-1-(2-phenylethyl)propyl]-5-methylimidazo[5,1-f][1,2,4]triazin-4(3H)-one, 0.5 μM cGMP (cyclic guanosine monophosphate) (including about 50,000 cpm of [3H]cGMP as a tracer), 1 μl of the respective compound dilution in dimethylsulfoxide (DMSO) and sufficient PDE5-containing platelet lysat (10,000×g supernatant, see above) to ensure that 10-20 wt % of the cGMP is converted under the said experimental conditions. […] After a preincubation of 5 min at 37° C., the reaction is started by adding the substrate (cGMP) and the assay is incubated for a further 15 min; after that, it is stopped by adding SPA beads (50 μl). In accordance with the manufacturer's instructions, the SPA beads had previously been resuspended in water, but are then diluted 1:3 (v/v) in water; the diluted solution also contains 3 mM […] (IBMX) to ensure a complete PDE activity stop. After the beads have been sedimented (>30 min), the MTP's are analyzed in commercially available luminescence detection devices. The corresponding IC50 values of the compounds for the inhibition of PDE activity are determined from the concentration-effect curves by means of non-linear regression.
row,IC50,Structure (SMILES)
1,< 1 nM,"COCC(=O)N[C@H]1CC[C@H](NC(=O)c2c(C)[nH]c3c(-c4c(OCC5CC5)ccc5c4OCO5)ncnc23)CC1 [Example E7, 4-[5-(Cyclopropylmethoxy)-1,3-benzodioxol-4-yl]-N-{trans-4-[(methoxyacetyl)amino]cyclohexyl}-6-methyl-5H-pyrrolo[3,2-d]pyrimidine-7-carboxamide]"
2,< 1 nM,"CCC(=O)N1CCC(NC(=O)c2c(C)[nH]c3c(-c4cc(F)c(OC)cc4OCC4CC4)ncnc23)CC1 [Example E132, 4-[2-(Cyclopropylmethoxy)-5-fluoro-4-methoxyphenyl]-6-methyl-N-(1-propionylpiperidin-4-yl)-5H-pyrrolo[3,2-d]pyrimidine-7-carboxamide]"
3,< 1 nM,"CC(=O)c1ccc(OCC2CC2)c(-c2ncnc3c(C(=O)NC4CCN(C(=O)CO)CC4)c(C)[nH]c23)c1 [Example F102, 4-[5-Acetyl-2-(cyclopropylmethoxy)phenyl]-N-[1-(hydroxyacetyl)piperidin-4-yl]-6-methyl-5H-pyrrolo[3,2-d]pyrimidine-7-carboxamide]"
4,< 1 nM,"COc1cc(-c2ncnc3c(C(=O)N[C@@H]4CCN(C(C)=O)C[C@H]4O)c(C)[nH]c23)c(OCC2CC2)cc1F (relative stereo) [Example E113, N-[(3R*,4R*)-1-Acetyl-3-hydroxypiperidin-4-yl]-4-[2-(cyclopropylmethoxy)-4-fluoro-5-methoxyphenyl]-6-methyl-5H-pyrrolo[3,2-d]pyrimidine-7-carboxamide]"
5,1 to 10 nM,"Cc1[nH]c2c(-c3ccc(F)cc3OCC3CC3)ncnc2c1C(=O)N[C@@H]1CN(C(=O)CO)C[C@H]1O (relative stereo) [Example F19, 4-[2-(Cyclopropylmethoxy)-4-fluorophenyl]-N-[(3R*,4R*)-4-hydroxy-1-(hydroxyacetyl)pyrrolidin-3-yl]-6-methyl-5H-pyrrolo[3,2-d]pyrimidine-7-carboxamide]"
6,< 1 nM,"CCC(=O)N1CC[C@@H](NC(=O)c2c(C)[nH]c3c(-c4cc(OC)ccc4OCC4CC4)ncnc23)[C@H](O)C1 (relative stereo) [Example E79, 4-[2-(Cyclopropylmethoxy)-5-methoxyphenyl]-N-[(3R*,4R*)-3-hydroxy-1-propanoylpiperidin-4-yl]-6-methyl-5H-pyrrolo[3,2-d]pyrimidine-7-carboxamide]"
7,< 1 nM,"Cc1[nH]c2c(-c3ccc(F)cc3OCC3CC3)ncnc2c1C(=O)N[C@H]1CC[C@H](NC(=O)[C@H](C)O)CC1 [Example F14, 4-[2-(Cyclopropylmethoxy)-4-fluorophenyl]-N-(trans-4-{[(2S)-2-hydroxypropanoyl]amino}cyclohexyl)-6-methyl-5H-pyrrolo[3,2-d]pyrimidine-7-carboxamide]"
8,< 1 nM,"CC(=O)N[C@H]1CC[C@@H](NC(=O)c2c(C)[nH]c3c(-c4cc(C)c(F)cc4OCC4CC4)ncnc23)CC1 [Example E125, N-[cis-4-(Acetylamino)cyclohexyl]-4-[2-(cyclopropylmethoxy)-4-fluoro-5-methylphenyl]-6-methyl-5H-pyrrolo[3,2-d]pyrimidine-7-carboxamide]"
9,< 1 nM,"CCC(=O)N1CCC(NC(=O)c2c(C)[nH]c3c(-c4cc(C)c(F)cc4OCC4CC4)ncnc23)CC1 [Example E120, 4-[2-(Cyclopropylmethoxy)-4-fluoro-5-methylphenyl]-6-methyl-N-(1-propanoylpiperidin-4-yl)-5H-pyrrolo[3,2-d]pyrimidine-7-carboxamide]"
10,< 1 nM,"CC(=O)c1ccc(OCC2CC2)c(-c2ncnc3c(C(=O)N[C@H]4CC[C@H](NC(=O)CO)CC4)c(C)[nH]c23)c1 [Example F104, 4-[5-Acetyl-2-(cyclopropylmethoxy)phenyl]-N-{trans-4-[(hydroxyacetyl)amino]cyclohexyl}-6-methyl-5H-pyrrolo[3,2-d]pyrimidine-7-carboxamide]"
11,1 to 10 nM,"COCC(=O)N1CC[C@@H](NC(=O)c2c(C)[nH]c3c(-c4cc(OC)ccc4OCC4CC4)ncnc23)[C@H](O)C1 (relative stereo) [Example E80, 4-[2-(Cyclopropylmethoxy)-5-methoxyphenyl]-N-[(3R*,4R*)-3-hydroxy-1-(methoxyacetyl)piperidin-4-yl]-6-methyl-5H-pyrrolo[3,2-d]pyrimidine-7-carboxamide]"
12,< 1 nM,"CCOc1ccc(C(F)(F)F)cc1-c1ncnc2c(C(=O)NC3CCN(C(=O)CO)CC3)c(C)[nH]c12 [Example F63, 4-[2-Ethoxy-5-(trifluoromethyl)phenyl]-N-[1-(hydroxyacetyl)piperidin-4-yl]-6-methyl-5H-pyrrolo[3,2-d]pyrimidine-7-carboxamide]"
13,< 1 nM,"CCOc1ccc(C(F)(F)F)cc1-c1ncnc2c(C(=O)NC3CCN(C(=O)CC)CC3)c(C)[nH]c12 [Example E100, 4-[2-Ethoxy-5-(trifluoromethyl)phenyl]-6-methyl-N-(1-propanoylpiperidin-4-yl)-5H-pyrrolo[3,2-d]pyrimidine-7-carboxamide]"
14,< 1 nM,"COc1cc(-c2nc(C)nc3c(C(=O)NC4CCN(C(C)=O)CC4)c(C)[nH]c23)c(OCC2CC2)cc1F [Example E173, N-(1-Acetylpiperidin-4-yl)-4-[2-(cyclopropylmethoxy)-4-fluoro-5-methoxyphenyl]-2,6-dimethyl-5H-pyrrolo[3,2-d]pyrimidine-7-carboxamide]"
15,< 1 nM,"Cc1[nH]c2c(-c3c(OCC4CC4)ccc4c3OCO4)ncnc2c1C(=O)N[C@H]1CC[C@H](NC(=O)CO)CC1 [Example F3, 4-[5-(Cyclopropylmethoxy)-1,3-benzodioxol-4-yl]-N-[trans-4-(glycoloylamino)cyclohexyl]-6-methyl-5H-pyrrolo[3,2-d]pyrimidine-7-carboxamide]"
16,< 1 nM,"CCOC(=O)N1CCC(NC(=O)c2c(C)[nH]c3c(-c4c(OCC5CC5)ccc5c4OCO5)ncnc23)CC1 [Example E4, Ethyl 4-[({4-[5-(cyclopropylmethoxy)-1,3-benzodioxol-4-yl]-6-methyl-5H-pyrrolo[3,2-d]pyrimidin-7-yl}carbonyl)amino]piperidine-1-carboxylate]"
17,< 1 nM,"COc1cc(-c2ncnc3c(C(=O)N[C@H]4CN(C(=O)CO)CC[C@@H]4O)c(C)[nH]c23)c(OCC2CC2)cc1F (relative stereo) [Example F73, 4-[2-(Cyclopropylmethoxy)-4-fluoro-5-methoxyphenyl]-N-[(3S*,4S*)-1-glycoloyl-4-hydroxypiperidin-3-yl]-6-methyl-5H-pyrrolo[3,2-d]pyrimidine-7-carboxamide]"
18,< 1 nM,"CC(=O)N[C@H]1CC[C@H](NC(=O)c2c(C)[nH]c3c(-c4cc(C(C)=O)ccc4OCC4CC4)ncnc23)CC1 [Example E166, N-[trans-4-(Acetylamino)cyclohexyl]-4-[5-acetyl-2-(cyclopropylmethoxy)phenyl]-6-methyl-5H-pyrrolo[3,2-d]pyrimidine-7-carboxamide]"
19,< 1 nM,"COCC(=O)N1CC[C@@H](NC(=O)c2c(C)[nH]c3c(-c4ccc(OC)cc4OCC4CC4)ncnc23)C1 [Example E62, 4-[2-(Cyclopropylmethoxy)-4-methoxyphenyl]-N-[(3R)-1-(methoxyacetyl)pyrrolidin-3-yl]-6-methyl-5H-pyrrolo[3,2-d]pyrimidine-7-carboxamide]"
